Experimental data taken from PubChem BioAssay (NCI).
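All cell lines were grown in 96-well plates and treated with compound for 48 hours. At the GI50, growth is halved. The concentration for full growth arrest is given as TGI.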

What was measured:
Assay in all cases: NCI-60 cell line screen, 48 h
A549 NSCLC = system: A549 NSCLC
COLO 205 colon = system: COLO 205 colon
DU-145 prostate = system: DU-145 prostate
HCC-2998 colon = system: HCC-2998 colon
IGROV1 ovarian = system: IGROV1 ovarian
NCI-H23 lung = system: NCI-H23 lung
SNB-19 CNS = system: SNB-19 CNS
T-47D breast = system: T-47D breast
UACC-62 melanoma = system: UACC-62 melanoma

Compound | TGI (A549 NSCLC) | TGI (COLO 205 colon) | TGI (DU-145 prostate) | TGI (HCC-2998 colon) | TGI (IGROV1 ovarian) | TGI (NCI-H23 lung) | TGI (SNB-19 CNS) | TGI (T-47D breast) | TGI (UACC-62 melanoma) | GI50 (A549 NSCLC) | GI50 (COLO 205 colon) | GI50 (DU-145 prostate) | GI50 (HCC-2998 colon) | GI50 (IGROV1 ovarian) | GI50 (NCI-H23 lung) | GI50 (SNB-19 CNS) | GI50 (T-47D breast) | GI50 (UACC-62 melanoma)
CSc1n[nH]c(N)c1C(=O)Nc1ccccc1 | > 100 µM | > 100 µM | > 100 µM | > 100 µM | > 100 µM | > 100 µM | > 100 µM | > 100 µM | > 100 µM | – | – | – | – | – | – | – | – | –
COc1ccc(CN2C3CC2CN(c2ccc(-c4cc(OCC(C)(C)O)cn5ncc(C#N)c45)cn2)C3)cn1 | > 100 µM | > 100 µM | > 100 µM | > 100 µM | > 100 µM | > 100 µM | > 100 µM | > 100 µM | > 100 µM | 6.27 µM | 2.99 µM | 26.2 µM | 93.7 µM | 4.17 µM | 17.8 µM | 20.7 µM | 9.02 µM | > 100 µM
COc1cc(/C=C/C=C2\CC/C(=C\C=C\c3ccc(O)c(OC)c3)C2=O)ccc1O | > 100 µM | > 100 µM | > 100 µM | > 100 µM | > 100 µM | > 100 µM | > 100 µM | > 100 µM | > 100 µM | – | – | – | – | – | – | – | – | –
C#CCN(Cc1ccc2nc(OC)c(OC)nc2c1)c1cc(OC)c(OC)c(OC)c1 | > 89.6 µM | 41.5 µM | > 74.5 µM | > 100 µM | > 69.6 µM | 46.2 µM | > 80.9 µM | > 100 µM | > 97.2 µM | – | – | – | – | – | – | – | – | –
COC1CC(OC2CCC3(C)C(=CCC4C3C(OC(C)=O)C(OC(=O)CC(C)C)C3(C)C(C(C)=O)CCC43O)C2)OC(C)C1OC1CC(OC)C(OC2CC(OC)C(OC3OC(C)C(OC4OC(CO)C(O)C(O)C4O)C(OC)C3O)C(C)O2)C(C)O1 (stereo unspecified) | > 75 µM | > 75 µM | > 75 µM | > 75 µM | > 75 µM | > 75 µM | > 75 µM | > 75 µM | > 75 µM | – | – | – | – | – | – | – | – | –
COc1cc2c(cc1OC)-c1cc3ccccc3c(=O)n1CC2 | > 100 µM | > 100 µM | > 100 µM | 50.1 µM | 72.8 µM | > 100 µM | > 100 µM | 81.5 µM | 39 µM | – | – | – | – | – | – | – | – | –
CCON1CC(C(=O)OC)=C(O)C1=O | > 100 µM | > 100 µM | > 100 µM | > 100 µM | > 100 µM | > 100 µM | > 100 µM | > 100 µM | > 100 µM | – | – | – | – | – | – | – | – | –
C1=C\SS/C=C\SS/1 | > 100 µM | > 100 µM | > 100 µM | > 100 µM | 62.5 µM | > 100 µM | > 100 µM | > 100 µM | > 100 µM | – | – | – | – | – | – | – | – | –
Oc1[nH]c2ccccc2c1N=NC(=S)Nc1ccc(Cl)cc1 | > 100 µM | > 100 µM | > 100 µM | > 100 µM | > 100 µM | > 100 µM | > 100 µM | > 100 µM | > 100 µM | – | – | – | – | – | – | – | – | –
CC(=O)c1ccc2c(c1)CC1(C2)Cc2ccccc2C1=O (stereo unspecified) | > 100 µM | > 100 µM | > 100 µM | > 100 µM | > 100 µM | > 100 µM | > 100 µM | > 100 µM | > 100 µM | – | – | – | – | – | – | – | – | –
CCC(C(=O)C(=O)OC)P1(=O)OC(C)(C)CN1C(C)(C)C (stereo unspecified) | > 100 µM | > 100 µM | > 100 µM | > 100 µM | > 100 µM | > 100 µM | > 100 µM | > 100 µM | 60.4 µM | – | – | – | – | – | – | – | – | –
COC(=O)C1=Nc2c(C)nn(-c3ccccc3)c2N=C(c2ccccc2)C1 | > 10 µM | > 10 µM | > 10 µM | > 10 µM | > 10 µM | > 10 µM | > 10 µM | > 10 µM | > 10 µM | – | – | – | – | – | – | – | – | –
OCc1ccc2c(c1)CC1(Cc3ccc(/C=N/O)cc3C1)C2 (stereo unspecified) | > 100 µM | 13.9 µM | > 100 µM | 11.5 µM | > 100 µM | 56.3 µM | > 100 µM | > 100 µM | > 56.1 µM | – | – | – | – | – | – | – | – | –
